Tests used:
Hepatotoxicity [1] = tested on: Hepatotoxicity;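 on HepSE bilirubinemia: bilirubinemia hepatic side effect score drawn from the DILIps training data, a prediction system for drug-induced liver injury; call rule not given here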;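 on HepSE cholecystitis: Cholecystitis-related hepatic side effect score drawn from the DILIps (drug-induced liver injury prediction) training data set; call rule not given here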;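 on HepSE cholelithiasis: hepatic side effect score for cholelithiasis, drawn from the DILIps training data for predicting drug-induced liver injury; call rule not given here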;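 on HepSE cirrhosis: cirrhosis hepatic side effect score taken from the DILIps (drug-induced liver injury prediction) training set; call rule not given here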;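 on HepSE elevated liver function tests: hepatic side effect score for raised liver function tests, as recorded in the DILIps training set used for predicting drug-induced liver injury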; on HepSE hepatic failure: call rule not given here;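 on HepSE hepatomegaly: hepatic side effect score for hepatomegaly, taken from the training set of the DILIps drug-induced liver injury prediction system; call rule not given here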
Hepatotoxicity [2] = tested on: Hepatotoxicity; remark: listed apart in the source;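 on HepSE bilirubinemia: bilirubinemia hepatic side effect score drawn from the DILIps training data, a prediction system for drug-induced liver injury; call rule not given here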;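 on HepSE cholecystitis: Cholecystitis-related hepatic side effect score drawn from the DILIps (drug-induced liver injury prediction) training data set; call rule not given here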;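 on HepSE cholelithiasis: hepatic side effect score for cholelithiasis, drawn from the DILIps training data for predicting drug-induced liver injury; call rule not given here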;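 on HepSE cirrhosis: cirrhosis hepatic side effect score taken from the DILIps (drug-induced liver injury prediction) training set; call rule not given here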;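 on HepSE elevated liver function tests: hepatic side effect score for raised liver function tests, as recorded in the DILIps training set used for predicting drug-induced liver injury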; on HepSE hepatic failure: call rule not given here;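 on HepSE hepatomegaly: hepatic side effect score for hepatomegaly, taken from the training set of the DILIps drug-induced liver injury prediction system; call rule not given here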
Hepatotoxicity [3] = tested on: Hepatotoxicity; remark: listed apart in the source;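 on HepSE bilirubinemia: bilirubinemia hepatic side effect score drawn from the DILIps training data, a prediction system for drug-induced liver injury; call rule not given here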;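 on HepSE cholecystitis: Cholecystitis-related hepatic side effect score drawn from the DILIps (drug-induced liver injury prediction) training data set; call rule not given here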;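 on HepSE cholelithiasis: hepatic side effect score for cholelithiasis, drawn from the DILIps training data for predicting drug-induced liver injury; call rule not given here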;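 on HepSE cirrhosis: cirrhosis hepatic side effect score taken from the DILIps (drug-induced liver injury prediction) training set; call rule not given here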;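 on HepSE elevated liver function tests: hepatic side effect score for raised liver function tests, as recorded in the DILIps training set used for predicting drug-induced liver injury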; on HepSE hepatic failure: call rule not given here
Hepatotoxicity [4] = tested on: Hepatotoxicity; remark: listed apart in the source;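 on HepSE bilirubinemia: bilirubinemia hepatic side effect score drawn from the DILIps training data, a prediction system for drug-induced liver injury; call rule not given here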;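 on HepSE cholecystitis: Cholecystitis-related hepatic side effect score drawn from the DILIps (drug-induced liver injury prediction) training data set; call rule not given here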;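 on HepSE cholelithiasis: hepatic side effect score for cholelithiasis, drawn from the DILIps training data for predicting drug-induced liver injury; call rule not given here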;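 on HepSE cirrhosis: cirrhosis hepatic side effect score taken from the DILIps (drug-induced liver injury prediction) training set; call rule not given here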;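 on HepSE elevated liver function tests: hepatic side effect score for raised liver function tests, as recorded in the DILIps training set used for predicting drug-induced liver injury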; on HepSE hepatic failure: call rule not given here
Hepatotoxicity [5] = tested on: Hepatotoxicity; remark: listed apart in the source; on HepSE hepatic failure: call rule not given here
Hepatotoxicity [6] = tested on: Hepatotoxicity; remark: listed apart in the source; on HepSE hepatic failure: call rule not given here
Hepatotoxicity [7] = tested on: Hepatotoxicity; remark: listed apart in the source
Hepatotoxicity [8] = tested on: Hepatotoxicity; remark: listed apart in the source
Hepatotoxicity [9] = tested on: Hepatotoxicity; remark: listed apart in the source
Hepatotoxicity [10] = tested on: Hepatotoxicity; remark: listed apart in the source
Hepatotoxicity [11] = tested on: Hepatotoxicity; remark: listed apart in the source
Hepatotoxicity [12] = tested on: Hepatotoxicity; remark: listed apart in the source
Hepatotoxicity [13] = tested on: Hepatotoxicity; remark: listed apart in the source
Hepatotoxicity [14] = tested on: Hepatotoxicity; remark: listed apart in the source

| Structure (SMILES) | HepSE_bilirubinemia (Hepatotoxicity [1]) | HepSE_cholecystitis (Hepatotoxicity [2]) | HepSE_cholelithiasis (Hepatotoxicity [3]) | HepSE_cirrhosis (Hepatotoxicity [4]) | HepSE_elevated liver function tests (Hepatotoxicity [5]) | HepSE_hepatic failure (Hepatotoxicity [6]) | HepSE_hepatic necrosis (Hepatotoxicity [7]) | HepSE_hepatitis (Hepatotoxicity [8]) | HepSE_hepatomegaly (Hepatotoxicity [9]) | HepSE_jaundice (Hepatotoxicity [10]) | HepSE_liver disease (Hepatotoxicity [11]) | HepSE_liver fatty (Hepatotoxicity [12]) | HepSE_liver function tests abnormal (Hepatotoxicity [13]) | HepSE_Combined Scores (Hepatotoxicity [14]) |
| --- | --- | --- | --- | --- | --- | --- | --- | --- | --- | --- | --- | --- | --- | --- |
| NS(=O)(=O)c1cc2c(cc1C(F)(F)F)NCNS2(=O)=O [HYDROFLUMETHIAZIDE] | 0 | 0 | 0 | 0 | 0 | 0 | 0 | 0 | 0 | 1 | 0 | 0 | 0 | 1 |
| CN1CC[C@]23c4c5ccc(O)c4O[C@H]2C(=O)CC[C@H]3[C@H]1C5 [HYDROMORPHONE] | 0 | 1 | 0 | 0 | 0 | 1 | 0 | 0 | 1 | 1 | 0 | 0 | 1 | 5 |
| CCN(CCO)CCCC(C)Nc1ccnc2cc(Cl)ccc12 (configuration not stated) [HYDROXYCHLOROQUINE] | 0 | 0 | 0 | 0 | 0 | 1 | 0 | 0 | 0 | 0 | 0 | 0 | 0 | 1 |
| NC(=O)NO [HYDROXYUREA] | 0 | 0 | 0 | 0 | 0 | 0 | 0 | 0 | 0 | 0 | 0 | 0 | 0 | 0 |
| OCCOCCN1CCN(C(c2ccccc2)c2ccc(Cl)cc2)CC1 (configuration not stated) [HYDROXYZINE] | 0 | 0 | 0 | 0 | 0 | 0 | 0 | 0 | 0 | 0 | 0 | 0 | 0 | 0 |
| CCCCCN(C)CCC(O)(P(=O)(O)O)P(=O)(O)O [IBANDRONIC ACID] | 0 | 0 | 0 | 0 | 0 | 0 | 0 | 0 | 0 | 0 | 0 | 0 | 0 | 0 |
| CC(C)Cc1ccc(C(C)C(=O)O)cc1 (configuration not stated) [IBUPROFEN] | 0 | 0 | 0 | 0 | 0 | 1 | 1 | 1 | 0 | 1 | 0 | 0 | 1 | 5 |
| CCCCCCCN(CC)CCCC(O)c1ccc(NS(C)(=O)=O)cc1 (configuration not stated) [IBUTILIDE] | 0 | 0 | 0 | 0 | 1 | 0 | 0 | 0 | 0 | 0 | 0 | 0 | 0 | 1 |
| CC(=O)[C@]1(O)Cc2c(O)c3c(c(O)c2[C@@H](O[C@H]2C[C@H](N)[C@H](O)[C@H](C)O2)C1)C(=O)c1ccccc1C3=O [IDARUBICIN] | 0 | 0 | 0 | 0 | 0 | 0 | 0 | 0 | 0 | 0 | 0 | 0 | 0 | 0 |
| O=c1[nH]c(=O)n([C@H]2C[C@H](O)[C@@H](CO)O2)cc1I [IDOXURIDINE] | 0 | 0 | 0 | 0 | 0 | 0 | 0 | 0 | 0 | 0 | 0 | 0 | 0 | 0 |
| O=P1(NCCCl)OCCCN1CCCl (configuration not stated) [IFOSFAMIDE] | 0 | 0 | 0 | 0 | 0 | 0 | 0 | 0 | 0 | 0 | 0 | 0 | 0 | 0 |
| CC#CCC(C)[C@H](O)/C=C/[C@@H]1[C@H]2C/C(=C/CCCC(=O)O)C[C@H]2C[C@H]1O (some centres not stated) [ILOPROST] | 0 | 0 | 0 | 0 | 0 | 0 | 0 | 0 | 0 | 0 | 0 | 0 | 0 | 0 |
| CN(C)CCCN1c2ccccc2CCc2ccccc21 [IMIPRAMINE] | 0 | 0 | 0 | 0 | 0 | 0 | 0 | 0 | 0 | 1 | 0 | 0 | 0 | 1 |

Reference: ChEMBL document CHEMBL1909294, “Translating clinical findings into knowledge in drug safety evaluation--drug induced liver injury prediction system (DILIps)” (PLoS Comput Biol, 2011)
